This passage reports IC50 results from patent US9284283B2, “Macrocyclic compounds for modulating IL-17” (ENSEMBLE THERAPEUTICS CORPORATION, priority 2012, dated 2016).

Bounds are passed on as bounds.

This test deals with T1, biotinylated human IL-17 (binding to IL17R/Fc) (Homo sapiens, UniProt Q16552).
T1 construct: purchased R&D Systems 317-ILB (IL-17, biotinylated); 177-IR (IL17R/Fc)
T1 sequence (Q16552 20-155 limits assumed): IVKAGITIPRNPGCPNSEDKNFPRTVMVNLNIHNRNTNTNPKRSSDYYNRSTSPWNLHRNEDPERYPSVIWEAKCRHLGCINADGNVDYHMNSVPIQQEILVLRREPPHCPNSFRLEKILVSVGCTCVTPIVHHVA
The experiment in a line: IL-17 competition ELISA II (captured IL17R/Fc, biotinylated IL-17). How it is done: In this version, a high binding 96-well plate (Costar #9018) was coated with 20 nM of goat anti-human IgG (KPL 01-10-02) in PBS, 100 μL/well, for 30 min at 37° C. followed by 5 min at 4° C. The plate was then washed in PBST (PBS/0.05% Tween-20) on a plate washer, (BioTek ELx450) then blocked with protein-free blocking buffer (Thermo Scientific #37573) in 250 μL/well for 30 min on a shaker at room temperature, and then washed again. IL17R/Fc (R&D Systems #177-IR; 10 nM in PBST, 100 μL/well) was then added to all wells. The plate was then incubated for 30 minutes at room temperature on the shaker.
While the receptor capture step was underway, compound dilutions were prepared in PBST to a concentration of 1 μM in 1.5 mL tubes. After the receptor capture step, the plate was washed and 50 μL PBST was added to the wells in row B down to row H. Then, 62.5 μL of the 1 μM compound dilutions were added to the wells of row A. From row A, 12.5 μL of the compound solution was removed and added to row B with mixing and this process of 5-fold dilutions was continued, by row, to row G. One of the wells in row A received only PBST (62.5 μL) and this dilution series served as the no competitor control. Then, going up from row G to row A, 50 μL of b-IL-17 (biotinylated human IL-17, R&D Systems #317-ILB; 20 nM) was added to all wells. Row H received 50 μL of PBST and served as the blank row, i.e., no compound and no b-IL-17. The plate was then incubated for 30 minutes at room temperature on the shaker.
After the wash, 100 μL Streptavidin-Horseradish Peroxidase (SA-HRP) (KPL #14-30-00) at 25 ng/mL in PBST was added to each well in the plate and the plate incubated for 30 minutes at room temperature followed by wash and 100 μL SureBlue™ TMB (KPL #52-00-03). After sufficient color development (approx 3-6 minutes), the reaction was fixed by the addition of 100 μL/well 0.5 N HCl and absorbance was measured at 450 nm on a BioTek Synergy 2 plate reader. The absorbances of ‘no competitor’ control and blank control should not exceed 1.5 A.U. and 0.06 A.U., respectively.
Data was processed using BioAssay Enterprise v10.1.4 (CambridgeSoft) software. Linear OD λ450 were plotted against log concentration (x) and fitted to a 4-parameter logistic equation. IC50 was calculated using positive ‘no competitor’ control data as an upper limit and blank control as a lower limit in each assay.
For orientation: IC50 means the concentration at which inhibition is half-maximal. As to `O=C1CNC(=O)[C@@H](Cc2ccc(NC(=O)[C@H](Cc3ccccc3Cl)NCc3ccccc3)cc2)NC(=O)CC2(CCCC2)CC(=O)NCCCCCN1` [Compound 503], the IC50 fell in the range of 1000 to 10000 nM. On to `CN1C(=O)CC2(CCCC2)CC(=O)NCCOCCOCCNC(=O)[C@H]1Cc1ccc(NC(=O)[C@H](Cc2ccccc2Cl)NC(=O)C2(c3ccc(F)cc3)CC2)cc1` [Compound 504], for which the half-inhibitory concentration (IC50) lay within 100 to 1000 nM.

As to `CN1C(=O)CC2(CCCC2)CC(=O)NCCCCCCCCNC(=O)[C@H]1Cc1ccc(NC(=O)[C@H](Cc2ccccc2Cl)NC(=O)C2(c3ccc(F)cc3)CC2)cc1` [Compound 505], the IC50 was 1000 to 10000 nM.

Regarding `O=C1CC2(CCCC2)CC(=O)N[C@H](Cc2ccc(NC(=O)[C@H](Cc3ccccc3C(F)(F)F)NC(=O)C3(c4ccc(F)cc4)CC3)cc2)C(=O)NCCOCCOCCN1` [Compound 508], the IC50 lay within 100 to 1000 nM.

Consider `Cc1ccc(C[C@H](NC(=O)C2(c3ccc(F)cc3)CC2)C(=O)Nc2ccc(C[C@H]3NC(=O)CC4(CCCC4)CC(=O)N(C)CCCCCNC(=O)[C@@H](C)NC3=O)cc2)c(C)c1` [Compound 509], for which the IC50 lay in the range of 100 to 1000 nM. For the compound `Cc1ccc(C[C@H](NC(=O)C2(c3ccc(F)cc3)CC2)C(=O)Nc2ccc(C[C@H]3NC(=O)CC4(CCCC4)CC(=O)NCCOCCOCCNC3=O)cc2)c(C)c1` [Compound 510], the IC50 was 100 to 1000 nM. Next, `CN1C(=O)CC2(CCCC2)CC(=O)N[C@H](C(=O)O)CCCCNC(=O)[C@@H](C(C)(C)C)NC(=O)[C@H]1Cc1ccc(NC(=O)[C@H](Cc2ccccc2Cl)NC(=O)C2(c3ccc(F)cc3)CC2)cc1` [Compound 514]: 100 to 1000 nM.

As for `C[C@H]1NC(=O)[C@@H](Cc2ccc(NC(=O)[C@H](Cc3ccccc3Cl)NC(=O)Cc3ccc(F)cc3)cc2)N(C)C(=O)CC2(CCCC2)CC(=O)NCCCCCN(C)C1=O` [Compound 518], the IC50 is below 100 nM. As for `O=C1CNC(=O)[C@H](Cc2ccc(NC(=O)[C@H](Cc3ccccc3Cl)NC(=O)Cc3ccccc3)cc2)NC(=O)CC2(CCCC2)CC(=O)NCCCCCN1` [Compound 519], the 50% inhibitory concentration (IC50) is below 100 nM. Take `C[C@H]1NC(=O)[C@@H](Cc2ccc(NC(=O)[C@H](Cc3ccccc3Cl)NC(=O)Cc3ccc(CO)cc3)cc2)NC(=O)CC2(CCCC2)CC(=O)NCc2cccc(c2)CNC1=O` [Compound 520]: the IC50 was below 100 nM. As for `O=C1CC2(CCCC2)CC(=O)N[C@H](Cc2ccc(NC(=O)[C@H](Cc3ccccc3Cl)NC(=O)c3ccc(F)cc3)cc2)C(=O)NCCOCCOCCN1` [Compound 521], the IC50 is below 100 nM. In the case of `CN1CCCCCN(C)C(=O)[C@@H](Cc2ccccn2)NC(=O)[C@@H](Cc2ccc(NC(=O)[C@H](Cc3ccccc3Cl)NC(=O)Cc3ccc(F)cc3)cc2)NC(=O)CC2(CCCC2)CC1=O` [Compound 524] it was below 100 nM; in that of `C[C@H]1NC(=O)[C@@H](Cc2ccc(NC(=O)[C@H](Cc3ccccc3Cl)NC(=O)c3ccc(F)cc3)cc2)NC(=O)CC2(CCCC2)CC(=O)N(C)CCCCCN(C)C1=O` [Compound 525], below 100 nM; in that of `O=C1CNC(=O)[C@@H](Cc2ccc(NC(=O)[C@@H](Cc3ccccc3Cl)NC(=O)Cc3ccccc3)cc2)NC(=O)CC2(CCCC2)CC(=O)NCCCCCN1` [Compound 526], 100 to 1000 nM. `NC(=O)CC[C@H]1NC(=O)[C@@H](Cc2ccc(NC(=O)[C@H](Cc3ccccc3Cl)NC(=O)C3(c4ccc(F)cc4)CC3)cc2)NC(=O)CC2(CCCC2)CC(=O)N[C@H](C(=O)O)CCCCNC1=O` [Compound 527]: the concentration for half-maximal inhibition (IC50) was below 100 nM. Take `O=C1CC2(CCCC2)CC(=O)N[C@H](Cc2ccc(NC(=O)[C@H](Cc3ccc(F)cc3Cl)NC(=O)C(F)(F)c3ccccc3)cc2)C(=O)NCCOCCOCCN1` [Compound 530]: the IC50 was below 100 nM.

Consider `O=C1CC2(CCCC2)CC(=O)N[C@H](Cc2ccc(NC(=O)[C@H](Cc3ccccc3Cl)NC(=O)C(F)(F)c3ccccc3)cc2)C(=O)NCCN2CCN(CCN1)CC2` [Compound 531], for which the IC50 lay within 100 to 1000 nM. In the case of `O=C1CC2(CCCC2)CC(=O)N[C@H](Cc2ccc(NC(=O)[C@H](Cc3ccccc3Cl)NC(=O)Cc3ccc(F)cc3)cc2)C(=O)NCCN2CCN(CCN1)CC2` [Compound 532], the IC50 fell in the range of 100 to 1000 nM.

Regarding `C[C@H]1NC(=O)[C@@H](Cc2ccc(NC(=O)[C@H](Cc3ccccc3Cl)NC(=O)C(F)(F)c3ccccc3)cc2)NC(=O)CC2(CCCC2)CC(=O)NCCN2CCN(CC2)C1=O` [Compound 533], the IC50 is 100 to 1000 nM. For the compound `C[C@H]1NC(=O)[C@@H](Cc2ccc(NC(=O)[C@H](Cc3ccccc3Cl)NC(=O)Cc3ccc(F)cc3)cc2)NC(=O)CC2(CCCC2)CC(=O)NCCN2CCN(CC2)C1=O` [Compound 534], the half-maximal inhibitory concentration (IC50) was below 100 nM. Next, `O=C1CC2(CCCC2)CC(=O)N[C@H](Cc2ccc(NC(=O)[C@H](Cc3ccccc3Cl)NC(=O)c3ccccc3O)cc2)C(=O)NCCOCCOCCN1` [Compound 537]: below 100 nM; `O=C1CC2(CCCC2)CC(=O)N[C@H](Cc2ccc(NC(=O)[C@H](Cc3ccccc3Cl)NC(=O)c3ccc(F)cc3O)cc2)C(=O)NCCOCCOCCN1` [Compound 538]: 100 to 1000 nM; `C[C@H]1NC(=O)[C@@H](Cc2ccc(NC(=O)[C@H](Cc3ccccc3Cl)NC(=O)Cc3ccc(F)cc3)cc2)NC(=O)CC2(CCCC2)CC(=O)N2CCN(CCNC1=O)CC2` [Compound 541]: below 100 nM. In the case of `C[C@H]1NC(=O)[C@@H](Cc2ccc(NC(=O)[C@H](Cc3ccccc3Cl)NC(=O)C(F)(F)c3ccccc3)cc2)NC(=O)CC2(CCCC2)CC(=O)N2CCN(CCNC1=O)CC2` [Compound 542], the IC50 is below 100 nM. As for `O=C1CC2(CCCC2)CC(=O)N[C@H](Cc2ccc(NC(=O)[C@H](Cc3ccccc3Cl)NC(=O)[C@@H](O)c3ccccc3)cc2)C(=O)NCCOCCOCCN1` [Compound 544], the concentration for half-maximal inhibition (IC50) is below 100 nM. For `O=C1CC2(CCCC2)CC(=O)N[C@H](Cc2ccc(NC(=O)[C@H](Cc3ccccc3Cl)NC(=O)[C@H](O)c3ccccc3)cc2)C(=O)NCCOCCOCCN1` [Compound 545], the 50% inhibitory concentration (IC50) is below 100 nM. As to `O=C1CC2(CCCC2)CC(=O)N[C@H](Cc2ccc(NC(=O)[C@H](Cc3ccccc3Cl)NC(=O)[C@@H](O)c3ccccc3)cc2)C(=O)NCCCCCN1` [Compound 546], the half-inhibitory concentration (IC50) was 100 to 1000 nM.

As to `O=C1CC2(CCCC2)CC(=O)N[C@H](Cc2ccc(NC(=O)[C@H](Cc3ccccc3Cl)NC(=O)[C@H](O)c3ccccc3)cc2)C(=O)NCCCCCN1` [Compound 547], the concentration for half-maximal inhibition (IC50) was 100 to 1000 nM.

As to `O=C1CC2(CCCC2)CC(=O)N[C@H](Cc2ccc(NC(=O)[C@H](Cc3ccccc3Cl)NC(=O)C(=O)c3ccccc3)cc2)C(=O)NCCOCCOCCN1` [Compound 548], the IC50 is below 100 nM. As for `C[C@H]1NC(=O)[C@@H](Cc2ccc(NC(=O)[C@H](Cc3ccccc3Cl)NC(=O)Cc3ccc(F)cc3)cc2)NC(=O)CC2(CC2)CC(=O)NCCCCCNC1=O` [Compound 554], the IC50 is below 100 nM. Consider `C[C@H]1NC(=O)[C@@H](Cc2ccc(NC(=O)[C@H](Cc3ccccc3Cl)NC(=O)Cc3ccc(F)cc3)cc2)NC(=O)CN(Cc2ccccc2)CC(=O)NCCCCCNC1=O` [Compound 557], for which the IC50 is 100 to 1000 nM. On to `C[C@H]1NC(=O)[C@@H](Cc2ccc(NC(=O)[C@H](Cc3ccccc3Cl)NC(=O)Cc3ccc(F)cc3)cc2)NC(=O)CN(C)CC(=O)NCCCCCNC1=O` [Compound 558], for which the half-maximal inhibitory concentration (IC50) was below 100 nM. Consider `O=C1CC2(CCCC2)CC(=O)N[C@H](Cc2ccc(NC(=O)[C@H](Cc3ccccc3Cl)NC(=O)C(F)(F)c3ccc(F)cc3)cc2)C(=O)NCCOCCOCCN1` [Compound 559], for which the 50% inhibitory concentration (IC50) was below 100 nM. In the case of `C[C@H]1NC(=O)[C@@H](Cc2ccc(NC(=O)[C@H](Cc3ccccc3Cl)NC(=O)C3(c4ccc(F)cc4)CC3)cc2)NC(=O)CC2(CCCC2)CC(=O)N(C)CCN(C)CCN(C)C1=O` [Compound 563], the IC50 fell in the range of 100 to 1000 nM. As for `C[C@H]1NC(=O)[C@@H](Cc2ccc(NC(=O)[C@@H](Cc3ccccc3Cl)NC(=O)Cc3ccc(F)cc3)cc2)NC(=O)[C@@H]2CC[C@@H](C2)C(=O)NCCCCCNC1=O` [Compound 564], the concentration for half-maximal inhibition (IC50) was 100 to 1000 nM. Take `CN1CCOCCOCCNC(=O)[C@@H](Cc2ccc(NC(=O)[C@H](Cc3ccccc3Cl)NC(=O)C(F)(F)c3ccccc3)cc2)NC(=O)CC2(CCCC2)CC1=O` [Compound 565]: the IC50 is below 100 nM. Turning to `COC(=O)N[C@@H](Cc1ccccc1Cl)C(=O)Nc1ccc(C[C@H]2NC(=O)CC3(CCCC3)CC(=O)N(C)CCOCCOCCNC2=O)cc1` [Compound 568], the 50% inhibitory concentration (IC50) was below 100 nM.
